# Measured values as given in US6503881B2 (priority 1996, dated 2003).
# Read-outs that look alike come from different tables or passages of the source.
# System: bacterial isolates
# Details: for PIC: with Gentamicin
substance,measurement,setting,value
W R I W K P K W R L P K W [MBI 11D18CN],Gentamicin MIC + Peptide,A. baumannii ABI001,16 µg/mL
same,Peptide MIC + Gentamicin,A. baumannii ABI001,0.5 µg/mL
same,Peptide MIC + Tobramycin,A. baumannii ABI001,4 µg/mL
same,Peptide MIC Alone,A. baumannii ABI001,64 µg/mL
same,Tobramycin MIC + Peptide,A. baumannii ABI001,4 µg/mL
same,Gentamicin MIC + Peptide,A. baumannii ABI002,8 µg/mL
same,Peptide MIC + Gentamicin,A. baumannii ABI002,2 µg/mL
same,Peptide MIC + Tobramycin,A. baumannii ABI002,0.5 µg/mL
same,Peptide MIC Alone,A. baumannii ABI002,16 µg/mL
same,Tobramycin MIC + Peptide,A. baumannii ABI002,4 µg/mL
same,Peptide MIC + Piperacillin,A. calcoaceticus 3,8 µg/mL
same,Peptide MIC Alone,A. calcoaceticus 3,32 µg/mL
same,Piperacillin MIC + Peptide,A. calcoaceticus 3,8 µg/mL
same,Peptide MIC + Piperacillin,E. cloacae 9,16 µg/mL
same,Peptide MIC Alone,E. cloacae 9,64 µg/mL
same,Piperacillin MIC + Peptide,E. cloacae 9,16 µg/mL
same,Peptide MIC + Piperacillin,E. cloacae 10,8 µg/mL
same,Peptide MIC Alone,E. cloacae 10,32 µg/mL
same,Piperacillin MIC + Peptide,E. cloacae 10,64 µg/mL
same,Gentamicin MIC + Peptide,E. coli ECO006,16 µg/mL
same,Peptide MIC + Gentamicin,E. coli ECO006,0.125 µg/mL
same,Mupirocin MIC + Peptide,E. coli SBECO1,30 µg/mL
same,Peptide MIC + Mupirocin,E. coli SBECO1,0.125 µg/mL
same,Peptide MIC Alone,E. coli SBECO1 (Mupirocin section),2 µg/mL
same,Mupirocin MIC + Peptide,E. coli SBECO2,30 µg/mL
same,Peptide MIC + Mupirocin,E. coli SBECO2,0.5 µg/mL
same,Peptide MIC Alone,E. coli SBECO2 (Mupirocin section),16 µg/mL
same,Peptide MIC + Vancomycin,E. faecalis EFS001,2 µg/mL
same,Peptide MIC Alone,E. faecalis EFS001,8 µg/mL
same,Vancomycin MIC + Peptide,E. faecalis EFS001,0.125 µg/mL
same,Peptide MIC + Vancomycin,E. faecalis EFS004,2 µg/mL
same,Peptide MIC Alone,E. faecalis EFS004,8 µg/mL
same,Vancomycin MIC + Peptide,E. faecalis EFS004,0.5 µg/mL
same,Gentamicin MIC + Peptide,E. faecalis EFS008,8 µg/mL
same,Peptide MIC + Gentamicin,E. faecalis EFS008,0.125 µg/mL
same,Peptide MIC + Vancomycin,E. faecalis EFS011,0.125 µg/mL
same,Peptide MIC Alone,E. faecalis EFS011,64 µg/mL
same,Vancomycin MIC + Peptide,E. faecalis EFS011,32 µg/mL
same,Peptide MIC + Vancomycin,E. faecalis EFS012,2 µg/mL
same,Peptide MIC Alone,E. faecalis EFS012,16 µg/mL
same,Vancomycin MIC + Peptide,E. faecalis EFS012,64 µg/mL
same,Peptide MIC + Vancomycin,E. faecalis EFS014,0.5 µg/mL
same,Peptide MIC Alone,E. faecalis EFS014,4 µg/mL
same,Vancomycin MIC + Peptide,E. faecalis EFS014,4 µg/mL
same,Gentamicin MIC + Peptide,E. faecium EFM004,8 µg/mL
same,Peptide MIC + Gentamicin,E. faecium EFM004,0.125 µg/mL
same,Peptide MIC + Vancomycin,E. faecium EFM004,2 µg/mL
same,Peptide MIC Alone,E. faecium EFM004,8 µg/mL
same,Vancomycin MIC + Peptide,E. faecium EFM004,64 µg/mL
same,Peptide MIC + Vancomycin,E. faecium EFM009,0.125 µg/mL
same,Peptide MIC Alone,E. faecium EFM009,8 µg/mL
same,Vancomycin MIC + Peptide,E. faecium EFM009,32 µg/mL
same,Peptide MIC + Vancomycin,E. faecium EFM010,0.25 µg/mL
same,Peptide MIC Alone,E. faecium EFM010,8 µg/mL
same,Vancomycin MIC + Peptide,E. faecium EFM010,64 µg/mL
same,Peptide MIC + Vancomycin,E. faecium EFM011,2 µg/mL
same,Peptide MIC Alone,E. faecium EFM011,8 µg/mL
same,Vancomycin MIC + Peptide,E. faecium EFM011,64 µg/mL
same,Peptide MIC + Piperacillin,H. influenzae 3,8 µg/mL
same,Peptide MIC Alone,H. influenzae 3,>128 µg/mL
same,Piperacillin MIC + Peptide,H. influenzae 3,0.25 µg/mL
same,Peptide MIC + Piperacillin,H. influenzae SB1,4 µg/mL
same,Peptide MIC Alone,H. influenzae SB1,>128 µg/mL
same,Piperacillin MIC + Peptide,H. influenzae SB1,0.25 µg/mL
same,Gentamicin MIC + Peptide,K. pneumonia KP020,32 µg/mL
same,Peptide MIC + Gentamicin,K. pneumonia KP020,0.125 µg/mL
same,Peptide MIC Alone,K. pneumonia KP020 (Gentamicin section),32 µg/mL
same,Peptide MIC + Piperacillin,P. aeruginosa 23,8 µg/mL
same,Peptide MIC Alone,P. aeruginosa 23,64 µg/mL
same,Piperacillin MIC + Peptide,P. aeruginosa 23,32 µg/mL
same,Peptide MIC + Piperacillin,P. aeruginosa 41,16 µg/mL
same,Peptide MIC Alone,P. aeruginosa 41,>128 µg/mL
same,Piperacillin MIC + Peptide,P. aeruginosa 41,32 µg/mL
same,Mupirocin MIC + Peptide,P. aeruginosa PA4,30 µg/mL
same,Peptide MIC + Mupirocin,P. aeruginosa PA4,64 µg/mL
same,Peptide MIC Alone,P. aeruginosa PA4 (Mupirocin section),128 µg/mL
same,Gentamicin MIC + Peptide,P. aeruginosa PA022,8 µg/mL
same,Peptide MIC + Gentamicin,P. aeruginosa PA022,0.125 µg/mL
same,Peptide MIC Alone,P. aeruginosa PA022 (Gentamicin section),8 µg/mL
same,Ciprofloxacin MIC + Peptide,P. aeruginosa PA24,4 µg/mL
same,Peptide MI + Ciprofloxacin,P. aeruginosa PA24,16 µg/mL
same,Peptide MI Alone,P. aeruginosa PA24 (Ciprofloxacin section),>128 µg/mL
same,Gentamicin MIC + Peptide,P. aeruginosa PA041,0.125 µg/mL
same,Peptide MIC + Gentamicin,P. aeruginosa PA041,8 µg/mL
same,Peptide MIC Alone,P. aeruginosa PA041 (Gentamicin section),64 µg/mL
same,Ciprofloxacin MIC + Peptide,P. aeruginosa PA77,0.5 µg/mL
same,Peptide MI + Ciprofloxacin,P. aeruginosa PA77,32 µg/mL
same,Peptide MI Alone,P. aeruginosa PA77 (Ciprofloxacin section),128 µg/mL
same,Mupirocin MIC + Peptide,P. aeruginosa SBPA1,100 µg/mL
same,Peptide MIC + Mupirocin,P. aeruginosa SBPA1,32 µg/mL
same,Peptide MIC Alone,P. aeruginosa SBPA1 (Mupirocin section),128 µg/mL
same,FIC,"Piperacillin + peptide, A. calcoaceticus 3",0.38
same,FIC,"Piperacillin + peptide, E. cloacae 9",0.31
same,FIC,"Piperacillin + peptide, E. cloacae 10",0.50
same,FIC,"Piperacillin + peptide, H. influenzae 3",0.53
same,FIC,"Piperacillin + peptide, H. influenzae SB1",0.52
same,FIC,"Piperacillin + peptide, P. aeruginosa 23",0.38
same,FIC,"Piperacillin + peptide, P. aeruginosa 41",0.56
same,FIC,"Piperacillin + peptide, S. aureus 19 MRSA",0.38
same,FIC,"Piperacillin + peptide, S. aureus SB2MRSA",0.50
same,FIC,"Piperacillin + peptide, S. maltophilia 2",0.50
same,FIC,"Piperacillin + peptide, S. marcescens 1",0.14
same,Peptide MIC + Piperacillin,S. aureus 19 MRSA,1 µg/mL
same,Peptide MIC Alone,S. aureus 19 MRSA,4 µg/mL
same,Piperacillin MIC + Peptide,S. aureus 19 MRSA,16 µg/mL
same,Gentamicin MIC + Peptide,S. aureus SA014 MRSA,2 µg/mL
same,Peptide MIC + Gentamicin,S. aureus SA014 MRSA,0.125 µg/mL
same,Peptide MIC Alone,S. aureus SA014 MRSA (Gentamicin section),2 µg/mL
same,Peptide MIC + Tobramycin,S. aureus SA018 MRSA,16 µg/mL
same,Peptide MIC Alone,S. aureus SA018 MRSA,32 µg/mL
same,Tobramycin MIC + Peptide,S. aureus SA018 MRSA,4 µg/mL
same,Gentamicin MIC + Peptide,S. aureus SA025 MRSA,1 µg/mL
same,Peptide MIC + Gentamicin,S. aureus SA025 MRSA,0.125 µg/mL
same,Peptide MIC Alone,S. aureus SA025 MRSA (Gentamicin section),1 µg/mL
same,Peptide MIC + Piperacillin,S. aureus SB2MRSA,0.5 µg/mL
same,Peptide MIC Alone,S. aureus SB2MRSA,2 µg/mL
same,Piperacillin MIC + Peptide,S. aureus SB2MRSA,32 µg/mL
same,Gentamicin MIC + Peptide,S. epidermidis SE071,4 µg/mL
same,Peptide MIC + Gentamicin,S. epidermidis SE071,0.125 µg/mL
same,Peptide MIC Alone,S. epidermidis SE071 (Gentamicin section),8 µg/mL
same,Gentamicin MIC + Peptide,S. epidermidis SE074,4 µg/mL
same,Peptide MIC + Gentamicin,S. epidermidis SE074,0.125 µg/mL
same,Peptide MIC Alone,S. epidermidis SE074 (Gentamicin section),4 µg/mL
same,Peptide MIC + Tobramycin,S. haemolyticus SHA001,1 µg/mL
same,Peptide MIC Alone,S. haemolyticus SHA001,2 µg/mL
same,Tobramycin MIC + Peptide,S. haemolyticus SHA001,0.125 µg/mL
same,Peptide MIC + Piperacillin,S. maltophilia 2,8 µg/mL
same,Peptide MIC Alone,S. maltophilia 2,32 µg/mL
same,Piperacillin MIC + Peptide,S. maltophilia 2,16 µg/mL
same,Gentamicin MIC + Peptide,S. maltophilia SMA016,16 µg/mL
same,Peptide MIC + Gentamicin,S. maltophilia SMA016,16 µg/mL
same,Peptide MIC Alone,S. maltophilia SMA016 (Gentamicin section),64 µg/mL
same,Gentamicin MIC + Peptide,S. maltophilia SMA019,4 µg/mL
same,Peptide MIC + Gentamicin,S. maltophilia SMA019,0.5 µg/mL
same,Peptide MIC Alone,S. maltophilia SMA019 (Gentamicin section),8 µg/mL
same,Peptide MIC + Tobramycin,S. maltophilia SMA027,16 µg/mL
same,Peptide MIC Alone,S. maltophilia SMA027,>128 µg/mL
same,Tobramycin MIC + Peptide,S. maltophilia SMA027,4 µg/mL
same,Peptide MIC + Tobramycin,S. maltophilia SMA029,4 µg/mL
same,Peptide MIC Alone,S. maltophilia SMA029,32 µg/mL
same,Tobramycin MIC + Peptide,S. maltophilia SMA029,4 µg/mL
same,Peptide MIC + Piperacillin,S. marcescens 1,4 µg/mL
same,Peptide MIC Alone,S. marcescens 1,>128 µg/mL
same,Piperacillin MIC + Peptide,S. marcescens 1,8 µg/mL
same,Mupirocin MIC + Peptide,S. marcescens SBSM1,100 µg/mL
same,Peptide MIC + Mupirocin,S. marcescens SBSM1,16 µg/mL
same,Peptide MIC Alone,S. marcescens SBSM1 (Mupirocin section),>128 µg/mL
same,Mupirocin MIC + Peptide,S. marcescens SBSM2,100 µg/mL
same,Peptide MIC + Mupirocin,S. marcescens SBSM2,64 µg/mL
same,Peptide MIC Alone,S. marcescens SBSM2 (Mupirocin section),>128 µg/mL
same,FIC,"Tobramycin + peptide, A. baumannii ABI001",0.31
same,FIC,"Tobramycin + peptide, A. baumannii ABI002",0.53
same,FIC,"Tobramycin + peptide, S. aureus SA018 MRSA",0.56
same,FIC,"Tobramycin + peptide, S. haemolyticus SHA001",0.53
same,FIC,"Tobramycin + peptide, S. maltophilia SMA027",0.19
same,FIC,"Tobramycin + peptide, S. maltophilia SMA029",0.16
same,FIC,"Vancomycin + peptide, E. faecalis EFS001",0.38
same,FIC,"Vancomycin + peptide, E. faecalis EFS004",0.50
same,FIC,"Vancomycin + peptide, E. faecalis EFS011",0.50
same,FIC,"Vancomycin + peptide, E. faecalis EFS012",0.38
same,FIC,"Vancomycin + peptide, E. faecalis EFS014",0.16
same,FIC,"Vancomycin + peptide, E. faecium EFM004",0.50
same,FIC,"Vancomycin + peptide, E. faecium EFM009",0.52
same,FIC,"Vancomycin + peptide, E. faecium EFM010",0.28
same,FIC,"Vancomycin + peptide, E. faecium EFM011",0.50
same,FIC,"with Ciprofloxacin, P. aeruginosa PA24",0.31
same,FIC,"with Ciprofloxacin, P. aeruginosa PA77",0.50
same,PIC,A. baumannii ABI001,0.27
same,PIC,A. baumannii ABI002,0.56
same,PIC,E. coli ECO006,0.27
same,PIC,E. faecalis EFS008,0.19
same,PIC,E. faecium EFM004,0.05
same,PIC,K. pneumonia KP020,0.50
same,PIC,P. aeruginosa PA022,0.52
same,PIC,P. aeruginosa PA041,0.14
same,PIC,S. aureus SA014 MRSA,0.13
same,PIC,S. aureus SA025 MRSA,0.14
same,PIC,S. epidermidis SE071,0.27
same,PIC,S. epidermidis SE074,0.09
same,PIC,S. maltophilia SMA016,0.38
same,PIC,S. maltophilia SMA019,0.19
same,FIC,"with Mupirocin, E. coli SBECO1",0.36
same,FIC,"with Mupirocin, E. coli SBECO2",0.06
same,FIC,"with Mupirocin, P. aeruginosa PA4",0.53
same,FIC,"with Mupirocin, P. aeruginosa SBPA1",0.35
same,FIC,"with Mupirocin, S. marcescens SBSM1",0.16
same,FIC,"with Mupirocin, S. marcescens SBSM2",0.35
